This note sets out measurements from article PMC7413254 (Nature Communications, 2020).

Holding throughout (assay type): cell-based
The target in assay [1] is T1, PfCRT^Ecu1110 (Plasmodium falciparum, UniProt Q9N623, A220S/I356L/K76T/N326D). Put plainly: cell-based. To be noted: for PfCRT-mediated [3H]CQ transport, trans-stimulation (% PfCRTEcu1110 control): PfCRTEcu1110 oocytes, normalised to oocyte type control; for [3H]CQ transport (% PfCRTDd2 control), trans-stimulation, PfCRTEcu1110: PfCRT-mediated component (background subtracted), sheet title says normalised to PfCRTDd2 control, mean ± SEM, SEM. A digest of the protocol: (§1)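 Oocytes (ten per treatment, ≥4 independent frogs/days) were preloaded by injecting VF-6 in 25 nL ND96 at pH 5.0, 5.5, 6.0 or 7.0, or Na^+-free choline buffer, then uptake run 1.5 h, 27.5 °C, ND96 pH 5.5 by default. Internal concentrations assumed ~400 nL oocyte volume.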
T1 sequence (Q9N623 whole entry A220S/I356L/K76T/N326D): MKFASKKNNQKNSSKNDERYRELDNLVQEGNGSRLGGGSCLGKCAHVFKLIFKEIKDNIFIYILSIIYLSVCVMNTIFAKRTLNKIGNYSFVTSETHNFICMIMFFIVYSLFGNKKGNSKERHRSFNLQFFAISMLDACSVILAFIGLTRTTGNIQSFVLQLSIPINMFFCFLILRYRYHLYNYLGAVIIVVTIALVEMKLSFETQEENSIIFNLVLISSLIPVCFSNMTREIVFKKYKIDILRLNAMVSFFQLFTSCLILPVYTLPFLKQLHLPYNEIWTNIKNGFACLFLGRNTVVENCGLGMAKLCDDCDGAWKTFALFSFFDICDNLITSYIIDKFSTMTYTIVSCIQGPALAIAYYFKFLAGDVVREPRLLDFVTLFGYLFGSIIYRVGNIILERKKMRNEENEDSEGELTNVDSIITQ

Assay [2] has as its target T2, PfCRT^Dd2 (Plasmodium falciparum, UniProt Q9N623, A220S/I356T/K76T/M74I/N326S/N75E/Q271E/R371I). Put plainly: cell-based. To be noted: for PfCRT-mediated [3H]CQ transport, trans-stimulation (% PfCRTDd2 control): PfCRTDd2 oocytes, normalised to oocyte type control; for [3H]CQ transport (% PfCRTDd2 control), trans-stimulation, PfCRTDd2: PfCRT-mediated component (background subtracted), mean ± SEM, SEM. A digest of the protocol:
as §1

Assay [3] has as its target PfCRT^3D7 (Plasmodium falciparum, UniProt Q8IBZ9). The experiment in a line: cell-based. To be noted: PfCRT3D7 oocytes, normalised to oocyte type control. The gist of the method: as §1
In assay [4] the target is T1, PfCRT^Ecu1110. Put plainly: [3H]CQ uptake into Xenopus oocytes, cis-inhibition by unlabelled solute. The following applies: for PfCRT-mediated [3H]CQ transport, cis-inhibition (% PfCRTEcu1110 control): PfCRTEcu1110 oocytes, background [3H]CQ accumulation subtracted, normalised to oocyte type control; for [3H]CQ transport (% PfCRTEcu1110 control), cis-inhibition, PfCRTEcu1110: PfCRT-mediated component (background subtracted), sheet title says normalised to PfCRTDd2 control, mean ± SEM, SEM. The gist of the method: (§2)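 Transport runs from the acidic bath into the cytosol, analogous to PfCRT-mediated efflux out of the vacuole. Non-expressing oocytes act as background.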

Assay [5] deals with T2, PfCRT^Dd2. The description is as above. The following applies: PfCRTDd2 oocytes, background [3H]CQ accumulation subtracted, normalised to oocyte type control. The gist of the method: as §2
The mark [6] stands for this setting: [test solute]i = 5 mM (intracellular).
Where [7] appears, read: [test solute]i = 45 mM (intracellular; 30 mM for some solutes due to solubility).
Where [8] appears, read: [test solute]i = 5 mM (injected).
Where [9] appears, read: [test solute]i = 45 mM (30 mM for some solutes due to solubility).

Sequence of PfCRT^3D7 (Q8IBZ9 59-398): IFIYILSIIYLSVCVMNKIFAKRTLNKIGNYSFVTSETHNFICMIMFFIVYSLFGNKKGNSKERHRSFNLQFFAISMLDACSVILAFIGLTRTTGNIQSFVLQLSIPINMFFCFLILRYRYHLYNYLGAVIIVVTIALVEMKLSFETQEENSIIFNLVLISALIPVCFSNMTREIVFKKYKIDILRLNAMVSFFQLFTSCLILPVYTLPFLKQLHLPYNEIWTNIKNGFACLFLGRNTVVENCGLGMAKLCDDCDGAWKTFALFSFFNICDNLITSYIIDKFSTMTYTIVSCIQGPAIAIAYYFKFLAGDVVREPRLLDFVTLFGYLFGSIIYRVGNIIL
T2 sequence (Q9N623 whole entry A220S/I356T/K76T/M74I/N326S/N75E/Q271E/R371I): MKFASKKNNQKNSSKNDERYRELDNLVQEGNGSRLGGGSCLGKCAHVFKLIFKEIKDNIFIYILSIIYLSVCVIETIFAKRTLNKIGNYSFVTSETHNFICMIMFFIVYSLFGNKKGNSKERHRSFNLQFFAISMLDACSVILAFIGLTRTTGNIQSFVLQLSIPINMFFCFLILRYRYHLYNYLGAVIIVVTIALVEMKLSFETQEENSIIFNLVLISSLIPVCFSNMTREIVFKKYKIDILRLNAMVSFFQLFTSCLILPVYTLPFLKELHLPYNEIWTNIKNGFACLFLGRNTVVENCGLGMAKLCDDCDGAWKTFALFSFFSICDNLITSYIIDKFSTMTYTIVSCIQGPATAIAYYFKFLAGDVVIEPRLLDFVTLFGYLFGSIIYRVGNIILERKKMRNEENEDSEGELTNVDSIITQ

As for SHCLLVT [ST-7], the “PfCRT-mediated [3H]CQ transport, trans-stimulation (% PfCRTEcu1110 control)” value in assay [1] (setting [6]) turned out to be 130 ± 3.2 % PfCRTEcu1110 control; in assay [1] (setting [7]), 136 ± 4.3 % PfCRTEcu1110 control. Moreover, the figures for the “[3H]CQ transport (% PfCRTDd2 control), trans-stimulation, PfCRTEcu1110” value in assay [1] (setting [8]) and in assay [1] (setting [9]) were 39 ± 1.3 % PfCRTEcu1110 control and 41 ± 2.2 % PfCRTEcu1110 control, respectively. The “PfCRT-mediated [3H]CQ transport, trans-stimulation (% PfCRTDd2 control)” value in assay [2] (setting [6]) is 97 ± 3.2 % PfCRTDd2 control; in assay [2] (setting [7]), 113 ± 2.0 % PfCRTDd2 control. The “[3H]CQ transport (% PfCRTDd2 control), trans-stimulation, PfCRTDd2” value in assay [2] (setting [8]) stood at 97 ± 3.2 % PfCRTDd2 control; in assay [2] (setting [9]), 113 ± 2.0 % PfCRTDd2 control. In addition, the “PfCRT-mediated [3H]CQ transport, trans-stimulation (% PfCRT3D7 control)” value is listed as 140 ± 4.3 % PfCRT3D7 control in assay [3] (setting [6]) and 192 ± 4.6 % PfCRT3D7 control in assay [3] (setting [7]). Moreover, the “PfCRT-mediated [3H]CQ transport, cis-inhibition (% PfCRTEcu1110 control)” value in assay [4] ([test solute] = 0.5 mM) worked out at 39 ± 1.1 % PfCRTEcu1110 control; in assay [4] ([test solute] = 1 mM), 31 ± 2.5 % PfCRTEcu1110 control; in assay [4] ([test solute] = 2 mM), 19 ± 1.4 % PfCRTEcu1110 control. In addition, the results for the “[3H]CQ transport (% PfCRTEcu1110 control), cis-inhibition, PfCRTEcu1110” value in assay [4] ([test solute] = 0.5 mM), in assay [4] ([test solute] = 1 mM) and in assay [4] ([test solute] = 2 mM) were 12 ± 0.5 % PfCRTEcu1110 control, 10 ± 0.1 % PfCRTEcu1110 control and 6.0 ± 0.02 % PfCRTEcu1110 control, respectively. Besides, the entries for the “PfCRT-mediated [3H]CQ transport, cis-inhibition (% PfCRTDd2 control)” value in assay [5] ([test solute] = 0.5 mM), in assay [5] ([test solute] = 1 mM) and in assay [5] ([test solute] = 2 mM) were 38 ± 1.0 % PfCRTDd2 control, 27 ± 1.3 % PfCRTDd2 control and 12 ± 0.1 % PfCRTDd2 control, respectively.

Regarding TPPVQ [TQ-5], the entries for the “PfCRT-mediated [3H]CQ transport, trans-stimulation (% PfCRTEcu1110 control)” value in assay [1] (setting [6]) and in assay [1] (setting [7]) were 96 ± 3.5 % PfCRTEcu1110 control and 96 ± 2.3 % PfCRTEcu1110 control, respectively. Further, the “[3H]CQ transport (% PfCRTDd2 control), trans-stimulation, PfCRTEcu1110” value in assay [1] (setting [8]) is given as 29 ± 1.6 % PfCRTEcu1110 control; in assay [1] (setting [9]) it was 30 ± 1.6 % PfCRTEcu1110 control. Further, the “PfCRT-mediated [3H]CQ transport, trans-stimulation (% PfCRTDd2 control)” value in assay [2] (setting [6]) is listed as 96 ± 3.2 % PfCRTDd2 control; in assay [2] (setting [7]), 97 ± 4.5 % PfCRTDd2 control. Also, the “[3H]CQ transport (% PfCRTDd2 control), trans-stimulation, PfCRTDd2” value in assay [2] (setting [8]) was determined as 96 ± 3.2 % PfCRTDd2 control; in assay [2] (setting [9]) it was 97 ± 4.5 % PfCRTDd2 control. Moreover, the entries for the “PfCRT-mediated [3H]CQ transport, trans-stimulation (% PfCRT3D7 control)” value in assay [3] (setting [6]) and in assay [3] (setting [7]) were 94 ± 3.5 % PfCRT3D7 control and 96 ± 4.2 % PfCRT3D7 control, respectively. Also, the “PfCRT-mediated [3H]CQ transport, cis-inhibition (% PfCRTEcu1110 control)” value in assay [4] ([test solute] = 0.5 mM) came to 56 ± 3.1 % PfCRTEcu1110 control; in assay [4] ([test solute] = 1 mM), 49 ± 2.6 % PfCRTEcu1110 control; in assay [4] ([test solute] = 2 mM), 42 ± 2.4 % PfCRTEcu1110 control. Besides, the figures for the “[3H]CQ transport (% PfCRTEcu1110 control), cis-inhibition, PfCRTEcu1110” value in assay [4] ([test solute] = 1 mM) and in assay [4] ([test solute] = 2 mM) were 15 ± 0.1 % PfCRTEcu1110 control and 13 ± 0.1 % PfCRTEcu1110 control, respectively. Further, the “PfCRT-mediated [3H]CQ transport, cis-inhibition (% PfCRTDd2 control)” value in assay [5] ([test solute] = 0.5 mM) worked out at 50 ± 2.1 % PfCRTDd2 control; in assay [5] ([test solute] = 1 mM), 30 ± 2.1 % PfCRTDd2 control; in assay [5] ([test solute] = 2 mM), 15 ± 0.3 % PfCRTDd2 control.
